In US8039648B2, “Compounds used as dyes comperable to Alexa Fluor 350 dyes” (Pierce Biotechnology, Inc., priority 2009, dated 2011):
Where a name gives a salt, the structure may show the parent alone.

Assays:
[1] = system: biotin and mouse IgG coated white 96-well plates; assay: Plate-based functional testing of streptavidin and GAM conjugates (Example 12); type: binding; details: for signal sensitivities and intensities of bound conjugates compared to conjugates made with AMCA-NHS: GAM and SA conjugates made with the dye, 4 μg/ml, ex 346/em 442
Procedure: Streptavidin and GAM conjugates made in Example 11 were analyzed on biotin and mouse IgG coated white 96-well plates. The plates were coated by making a 1:1 serial dilution of biotinylated bovine serum albumin (BSA, Thermo Scientific) and mouse IgG with starting concentrations of 2 μg/ml and 10 μg/ml, respectively. One hundred μl of each dilution was added per well. The last column on each plate was considered blank (PBS buffer only). The plates were incubated overnight at 4° C. and then blocked by washing 3×200 μl with SuperBlock Blocking Buffer in PBS (Thermo Scientific). Plates were washed 2×200 μl PBS-Surfact-Amp 20 and 1×100 μl PBS. All of the conjugates were diluted to 4 μg/ml in PBS buffer, added to the plates (100 μl/well) and incubated for one hour at room temperature (RT) (about 20° C. to about 22° C.). The plates were then washed 2×200 μl with PBS containing 0.05% Surfact-Amp 20 and 1×200 μl PBS. Finally 100 μl PBS buffer was added to the wells. The fluorescence intensity of the bound conjugate was measured on Tecan Safire using optimal Alexa Fluor 350 setting (ex 346/em 442) and optimal gain. FIGS. 7A and 7B show relative fluorescent units (RFU) and signal to background ratios (S/B), respectively, of goat anti-mouse antibodies (GAM) conjugated to amino-methyl-coumarin-acetate (AMCA), V07-09111-NHS, V07-09144-NHS, and Alexa Fluor 350-NHS. FIGS. 7C and 7D show RFU and S/B, respectively, of streptavidin (SA) conjugated to AMCA, V07-09111, V07-09144, and Alexa Fluor 350.

[2] = Absorbance spectra of the NHS dyes in PBS buffer (Example 8); type: physicochemical; details: PBS buffer pH 7.2, 10 mg/ml in DMF diluted 1:1000
Procedure: Each of NHS-AMCA (MW=330 g/mole), V07-09111-NHS “8-isomer” (MW=874.1 g/mole), V07-0144-NHS “6-isomer” (MW=874.1 g/mole) and Alexa Fluor 350-NHS, Molecular Probes (Product #A10168) were reconstituted in DMF at 10 mg/ml and then diluted 1:1000 in PBS buffer (100 mM sodium phosphate, 150 mM NaCl; pH 7.2). Absorbance of the sample was evaluated from 440 nm to 240 nm on a UV Cary Spectrophotometer (Varian).

[3] = UV-Vis absorption and emission maxima given with the synthesis examples; type: physicochemical
[4] = Absorption and emission spectra in water and ethanol (Example 9); type: physicochemical; details: for emission spectrum maximum: excitation 345 nm
Procedure: Absorption spectra of compounds V07-09111 and V07-09144 (concentrations between 10 μM and 50 μM) in water and ethanol (spectral grade) were recorded (Analytik Jena Specord 205 absorption spectrometer, quartz cuvettes with a pathlength of 1 cm). For emission spectra determination, the solutions were diluted in PBS (100 mM, pH 7.4, 100 mM sodium chloride, 5 mM sodium azide) to an absorbance of around 0.1 at a 1 cm pathlength; emission spectra were recorded on a JASCO FP-6600 fluorescence spectrometer; excitation wavelength 345 nm, excitation and emission slits were 3 nm and 6 nm, respectively. Both absorption and emission spectra were normalized to the maxima for presentation in FIGS. 2, 3, 4, and 5.
FIGS. 2 and 3 show the absorbance and emission spectra of V07-09144 in water and ethanol, respectively. FIGS. 4 and 5 show the absorbance and emission spectra of V07-09111 in water and ethanol, respectively. The absorbance and emission spectra of V07-09111 are 350 nm and 430 nm in water, and 351 nm and 443 nm in ethanol, respectively. The absorbance and emission spectra of V07-09144 are 350 nm and 440 nm in water, and 351 nm and 443 nm in ethanol, respectively.

Lamin A = assay: Immunofluorescence detection of Lamin A in HeLa cells with dye-GAM conjugates (Example 13); type: cell-based, human; details: GAM conjugates made with the dye, 4 μg/ml, similar molar excesses
Procedure: Lamin A was stained in HeLa cells to compare […]-09111-GAM and […]-09144GAM to AMCA-GAM and Alexa Fluor 350-GAM. HeLa cells were seeded at about 10,000 cells/well in a 96-well clear bottom collagen coated tissue culture plate (BD Falcon BioCoat collagen) and cultured overnight. To fix the cells, the medium was removed and replaced at 100 μl/well with freshly prepared 4% paraformaldehyde (EMS Product #15710-S) diluted in 8 mM sodium phosphate, 2 mM potassium phosphate, 140 mM sodium chloride and 10 mM potassium chloride (PBS pH 7.4) and the cells were incubated at room temperature for 15 minutes. After 15 minutes, the cells were washed 3 times with PBS. After removal of PBS the cells were permeabilized with 100 μl/well of PBS containing 0.1% Surfact-Amps X-100. The permeabilization was carried out at room temperature (RT) for 15 minutes and then the cells were washed two times with PBS. The cells were blocked at RT for 30 minutes with (100 μl/well) PBS containing 0.1% Triton X-100 and supplemented with 2% of BlockerTM BSA (Thermo Scientific). […] The images shown in FIGS. 8A-H were acquired using the appropriate shift free optical filter set with a […] on Zeiss Axio Observer Z1 fluorescence microscope using an ORCA-ER-1394 Hamamatsu, CCD Digital Camera and the AxioVison Release 4.7 Software. […]

Row | Compound | signal sensitivities and intensities of bound conjugates compared to conjugates made with AMCA-NHS [1] | absorbance maxima (AbsMax) [2] [nm] | λem ([3]; UV-Vis (PBS)) [nm] | λmax ([3]; UV-Vis (PBS)) [nm] | other results
1 | Cc1c(CC(=O)ON2C(=O)CCC2=O)c(=O)oc2cc(N)c(S(=O)(=O)O)cc12 [Alexa Fluor 350-NHS, reference compound] | higher signal sensitivities and intensities | 345 | – | – | –
2 | Cc1c(CC(=O)ON2C(=O)CCC2=O)c(=O)oc2cc(N)ccc12 [NHS-AMCA, succinimidyl-7-amino-4-methylcoumarin-3-acetate, reference compound] | – | 349 | – | – | –
3 | Nc1ccc2c3c(c(=O)oc2c1S(=O)(=O)O)CCC3C(CC(=O)O)S(=O)(=O)[O-].[Na+] (stereo not drawn) [V07-09089, 3-(7-amino-4-oxo-6-sulfo-1,2,3,4-tetrahydro-cyclopenta[c]chromen-1-yl)-3-sulfopropionic acid bis sodium salt] | – | – | 429 | 352 | binding in a functional plate assay among the DY-350 dyes ([1]; comparison among the DY-350 dyes): lower binding in a functional plate assay
4 | CCOC(=O)CCC1CCc2c1c1ccc(NC(=O)OCC)cc1oc2=O (stereo not drawn) [V07-09096, 3-(7-ethoxycarbonylamino-4-oxo-1,2,3,4-tetrahydro-cyclopenta[c]chromen-1-yl)propionic acid ethylester] | – | – | – | – | ε ([3]; in methanol): 23000 L/mol/cm; λem ([3]; in methanol): 393 nm; λmax ([3]; in methanol): 328 nm
5 | Nc1ccc2c3c(c(=O)oc2c1S(=O)(=O)O)CCC3C(CC(=O)NCCCC(=O)O)S(=O)(=O)O (stereo not drawn) [V07-09111, 4-[3-(7-amino-4-oxo-6-sulfo-1,2,3,4-tetrahydro-cyclopenta[c]chromen-1-yl)-3-sulfo-propionylamino]-butyric acid] | – | – | 430 | 352 | absorbance spectrum maximum ([4]; in ethanol): 351 nm; emission spectrum maximum ([4]; in ethanol): 443 nm; absorbance spectrum maximum ([4]; in water): 350 nm; emission spectrum maximum ([4]; in water): 430 nm
6 | Nc1ccc2c3c(c(=O)oc2c1S(=O)(=O)O)CCC3C(CC(=O)NCCCC(=O)ON1C(=O)CCC1=O)S(=O)(=O)O (stereo not drawn) [V07-09111-NHS, 4-[3-(7-amino-4-oxo-6-sulfo-1,2,3,4-tetrahydro-cyclopenta[c]chromen-1-yl)-3-sulfo-propionylamino]-butyric acid NHS ester bis diisopropyethylammonium salt] | higher signal sensitivities and intensities | 352 | 430 | 352 | specificity of staining and background compared to NHS-AMCA or NHS-Alexa Fluor 350 conjugates (Lamin A): higher specificity of staining for the target with lower background
7 | Nc1c(S(=O)(=O)O)cc2c3c(c(=O)oc2c1S(=O)(=O)O)CCC3C(CC(=O)O)S(=O)(=O)[O-].[Na+] (stereo not drawn) [V07-09140, 3-(7-amino-4-oxo-6,8-disulfo-1,2,3,4-tetrahydro-cyclopenta[c]chromen-1-yl)-3-sulfo-propionic acid tris sodium salt] | – | – | 435 | 350 | –
8 | Nc1cc2oc(=O)c3c(c2cc1S(=O)(=O)O)C(C(CC(=O)O)S(=O)(=O)O)CC3 (stereo not drawn) [V07-09142, 3-(7-amino-4-oxo-8-sulfo-1,2,3,4-tetrahydro-cyclopenta[c]chromen-1-yl)-3-sulfo propionic acid bis sodium salt] | – | – | 440 | 349 | –
9 | Nc1cc2oc(=O)c3c(c2cc1S(=O)(=O)O)C(C(CC(=O)NCCCC(=O)ON1C(=O)CCC1=O)S(=O)(=O)O)CC3 (stereo not drawn) [V07-09144-NHS] | higher signal sensitivities and intensities | 347 | – | – | specificity of staining and background compared to NHS-AMCA or NHS-Alexa Fluor 350 conjugates (Lamin A): higher specificity of staining for the target with lower background
